According to patent US10131717B2, “Topically administered, skin-penetrating glycosaminoglycan formulations suitable for use in cosmetic and pharmaceutical applications” (London Health Sciences Centre Research Inc., priority 2010, dated 2018):

Tests used:
[1] = system: senescent human fibroblasts; assay: Percent of cells with hyaluronan coats and coat size in senescent human fibroblasts; format: cell-based; conditions: FIG. 2
Description: Modified hyaluronan (HA-PE-1), prepared according to Example 2, or hyaluronan alone (350 kDA; 10 mg/mL stock solution in saline) was added to senescent human fibroblasts in increasing concentrations (0-100 μg/mL).
The effect of the addition of modified hyaluronan (HA-PE-1; 50 μg/mL) vs. hyaluronan alone (50 μg/mL) on the cell coat area of the cells was quantified using image analysis (Elements 3.1, Nikon). […] Values are means and S.E.M. for 10 samples.

human dermal fibroblasts = assay: Hyaluronan cell coats on cultured human dermal fibroblasts (fluorescent nanosphere exclusion); format: cell-based; conditions: hyaluronan 500 μg/mL (350 kDa) or HA-PE-1 25 μg/mL, 1 hour; compared to PBS control; FIG. 1
Description: The suitability of the present compositions was assessed by determining its ability to encase/surround cultured dermal fibroblasts grown from a punch biopsy of human skin. Punch biopsies were placed in a sterile tissue culture dish (35×10 mm, tissue culture dish) and cut with small (e.g., 19 G) sterile needles into small fragments. The fragments were allowed to dry briefly (e.g., no more than 10 minutes) to the bottom of the tissue culture dish to promote adherence of the tissue fragments. Dulbecco's modified Eagles Medium (DMEM), supplements with 10% fetal calf serum (FCS) was then gently added and the culture is then placed in a humidified 37° C. incubator supplemented with 5% CO2 for approximately one week. […]
In the images shown in FIG. 1, the hyaluronan cell coat is observed as a dark space since small fluorescent beads are excluded by the coat as denoted by the arrow within the image. Cells without coats […] are entirely covered by the fluorescent beads.

skin barrier = conditions: Kaya et al.; cited from earlier work
[2] = system: female BL6 wild-type mice; assay: Comparison of ability to penetrate the skin barrier of mice (hyaluronan staining; treated vs untreated area); format: in vivo, mouse
Description: HA-PE-2, prepared as described in Example 3, hyaluronan mixed with, but not covalently linked to, lipids in the lecithins present in Example 3 (see Example 1), and hyaluronan alone (no additional phospholipid), were each formulated with a NIVEA Creme cosmetic base cream (1:1, v/v) as described in Example 4. The creams were then applied to the shaved backs (0.18 g HA-PE-2/application, 40×30 mm shaved area) of 9-month old female BL6 wild-type mice once daily for 4 days. After this time, one group of animals was euthanized and processed according to the procedure described in Example 9. A second group of animals were left without further treatment for an additional […] and euthanized/processed as described in Example 9 on day 7.
Since the amount of endogenous hyaluronan in skin can vary with location, internal controls were designed to evaluate hyaluronan staining of treated and control skin were developed to confirm the difference between the treated vs. untreated skin area. HA-PE-2 and control creams (hyaluronan only) were applied to the shaved backs of mice as previously described. Areas of treatment were marked (hair in the adjacent untreated margins was removed with Nair™ and the punch aligned to include the treated and untreated region; tissue punches were orientated in small tissue baskets to keep the tissue in the correct orientation throughout processing and marked with a histology marker pen) and tissue was harvested/processed as previously described (Example 9).

With hyaluronan the “concentration at which the percentage of cells with coats reached a plateau” value ([1]; 0-100 μg/mL) was 10 µg/mL, the “percentage of cells that exhibited hyaluronan coats” value ([1]; increasing concentrations 0-100 μg/mL) was “fewer cells with hyaluronan coats” and the “size of the hyaluronan coat (exclusion of fluorescent beads)” value (human dermal fibroblasts) was “little additional effect”. For the same substance, the “retention in skin of topically applied hyaluronan (literature)” value (skin barrier) was “poorly retained in the epidermal layer”, the “hyaluronan staining / hyaluronan penetrating the skin barrier” value ([2]; creams once daily for 4 days, p<0.000001, FIG. 9, 10) was “negligible amounts of hyaluronan penetrating the skin barrier” and the “hyaluronan staining in keratinocytes following cessation of treatment” value ([2]; day 7, treatment stopped after day 4, FIG. 9, 10) was “remained negligible”. For the same substance, the “hyaluronan staining at the application edge, treated vs untreated area of skin” value ([2]; internal control, p<0.000001, FIG. 11, 12) was “a distinct margin of staining was not observed”.
